Laboratory results published in patent publication US20230152304A1 (SHENZHEN MINDRAY BIO-MEDICAL ELECTRONICS CO., LTD., priority 2020, published 2023).
Each block holds one molecule with its values, some of them ahead of it. Residues, ends and D or L forms follow the SMILES beside them.

How the values were obtained:
[1] = pKa of the amino group of the compound
Text: For the compound having a plurality of amino groups/imino groups, the pKa of amino group described herein refers to the first dissociation constant, that is, pKa of amino group or imino group which firstly dissociates hydrogen ion.

[2] = system: aggregated platelets induced by ADP; test: Platelet disaggregation rate of blood samples with ADP-induced platelet aggregation (hematology analyzer, PLT_O)
Protocol: The compounds in Table 1 above were respectively added to a diluent used for a hematology analyzer to prepare blood sample diluents. […] Each of the compounds in Table 1 (at a final concentration 0.01 mol/L) was added to the diluent separately, pH was adjusted to 14, and the osmotic pressure was adjusted to 200 mOsm/L to obtain the treatment solution.
The venous blood of a healthy subject was collected into blood anticoagulant tubes for later use. Two aliquot blood samples (1 ml/sample) were taken. The above-mentioned diluent was added to one of the samples, the resulting solution was mixed evenly, and then the platelet count was detected in a hematology analyzer (Mindray BC-6000Plus) and recorded as: PLT_O (unaggregated). The platelet aggregation inducer ADP (at a final concentration of 0.01 mmol/L) was added to the other sample, and the resulting solution was mixed evenly. Platelets were aggregated 5 min later, at this time the above-mentioned diluent was added, and then the blood containing the aggregated platelets was detected by the hematology analyzer to obtain the platelet count, which was recorded as: PLT_O (aggregated). Another 1 ml of blood sample was taken, the platelet aggregation inducer ADP (at a final concentration of 0.01 mmol/L) was added, and the resulting solution was mixed evenly. The above-mentioned treatment solution was added 5 min later, the resulting solution was mixed evenly, and then the platelet count of the treated blood was detected by the hematology analyzer and was recorded as: PLT_O (disaggregated).

[3] = Table 4, pH 10.64, method of Example 1
[4] = Table 2, compound 0.01 mol/L, pH 14, ADP 0.01 mmol/L
[5] = Table 4, pH 5.75, method of Example 1
[6] = Table 4, pH 9.96, method of Example 1
[7] = Table 3, method of Example 1 (0.01 mol/L, pH 14, ADP 0.01 mmol/L)
[8] = FIG. 13, 10 mmol/L, pH 9.5, ADP 0.01 mmol/L
[9] = Table 5, pH 9.5, method of Example 1
[10] = Table 4, pH 9.14, method of Example 1
[11] = Table 4, pH 10.8, method of Example 1
[12] = Table 4, pH 8.18, method of Example 1

Molecule: ethylamine
pKa ([1]; Table 4): 10.67 | Platelet disaggregation rate [2, 3]: 83.32%

Molecule: CCCCc1ccc(O)cc1 [4-butylphenol, reference compound]
Platelet disaggregation rate [2, 4]: 9.43%

pKa [1]: 1.19
Molecule: NS(=O)(=O)O [sulfamic acid]
Platelet disaggregation rate [2, 5]: 64.54%

Molecule: 3-amino-1-propanol
Platelet disaggregation rate [2, 6]: 81.43%

pKa ([1]; pKa, Table 3): 5.17
Molecule: Nc1ccc(N)c(S(=O)(=O)O)c1 [2,5-diaminobenzene-sulfonic acid]
Platelet disaggregation rate [2, 7]: 62.44%

Molecule: CNCC(=O)O [sarcosine]
Platelet disaggregation rate [2, 4]: 64.75%

Molecule: N.N.N.O=P(O)(O)O [(NH4)3PO4, ammonium phosphate]
disaggregation effect [2, 8]: 94.87%

Molecule: OCN(CO)C(CO)(CO)CO [reference compound]
pKa [1]: 6.5 | disaggregation rate [2, 9]: 24.0%

Molecule: N=C(N)NCCC[C@H](N)C(=O)O [arginine]
pKa ([1]; pKa, Table 5): 9 | disaggregation rate [2, 9]: 62.64%

Molecule: Cl.N [ammonium chloride]
disaggregation effect [2, 8]: 95.70% | disaggregation effect ([2]; FIG. 14, 50 mmol/L (total for combination, equal parts), ADP 0.1 mmol/L): 66.27% | disaggregation rate ([2]; Table 6, 0.01 mol/L, pH 4.0): 18.62% | disaggregation rate ([2]; Table 6, 0.01 mol/L, pH 5.5): 31.70% | disaggregation rate ([2]; Table 6, 0.01 mol/L, pH 6.5): 59.61% | disaggregation rate ([2]; Table 6, 0.01 mol/L, pH 7.5): 94.05% | disaggregation rate ([2]; Table 6, 0.01 mol/L, pH 8.5): 94.62% | disaggregation rate ([2]; Table 6, 0.01 mol/L, pH 9.5): 95.70% | disaggregation rate ([2]; Table 6, 0.01 mol/L, pH 11.0): 97.72%

Molecule: NCC(=O)O [glycine]
Platelet disaggregation rate [2, 4]: 65.47% | Platelet disaggregation rate [2, 7]: 65.47% | disaggregation rate [2, 9]: 70.47%

pKa ([1]; pKa, Table 4): 9.14
Molecule: NCc1ccc(O)cc1 [4-hydroxybenzylamine]
Platelet disaggregation rate [2, 10]: 51.43%

pKa ([1]; pKa, Table 4): 10.6
Molecule: NCCc1ccc(O)cc1 [tyramine]
Platelet disaggregation rate [2, 10]: 48.44%

Molecule: CCCCN [butylamine]
Platelet disaggregation rate [2, 7]: 87.53% | Platelet disaggregation rate [2, 3]: 84.34%

Molecule: 1,3-diaminopropane
pKa ([1]; Table 3): 10.4 | Platelet disaggregation rate [2, 7]: 91.14%

Molecule: [Cl-].[Na+] [NaCl, reference compound]
disaggregation effect [2, 8]: 18.90%

Molecule: NCCO [ethanolamine]
Platelet disaggregation rate [2, 4]: 91.45% | Platelet disaggregation rate [2, 7]: 86.45% | Platelet disaggregation rate [2, 6]: 88.45%

Molecule: O=S(=O)(O)c1ccccc1 [benzenesulfonic acid, reference compound]
Platelet disaggregation rate [2, 4]: 13.77%

Molecule: Nc1ccc(O)cc1 [4-aminophenol]
pKa [1]: 5.5 | Platelet disaggregation rate [2, 4]: 67.73% | Platelet disaggregation rate [2, 10]: 67.37%

Molecule: CNCc1ccc(O)cc1 [4-[(methylamino)methyl]phenol]
Platelet disaggregation rate [2, 4]: 59.43%

Molecule: CC(=O)O.NC(CO)(CO)CO [tris(hydroxymethyl)aminomethane acetate]
disaggregation rate [2, 9]: 75.23%

Molecule: CC(N)=O [acetamide]
Platelet disaggregation rate [2, 4]: 64.57% | Platelet disaggregation rate [2, 7]: 44.44%

Molecule: Nc1ccccc1 [aniline]
Platelet disaggregation rate [2, 7]: 56.26%

Molecule: tris(hydroxymethyl)aminomethane
pKa ([1]; Table 5): 8.1 | disaggregation rate [2, 9]: 97.32%

pKa ([1]; pKa, Table 4): 9.12
Molecule: NCCS(=O)(=O)O [taurine]
Platelet disaggregation rate [2, 5]: 46.25%

pKa ([1]; Table 3): 9.68
Molecule: NCC(O)CN [1,3-diamino-2-propanol]
Platelet disaggregation rate [2, 7]: 93.78%

Molecule: N.N.O=C(O)C(=O)O [NH4C2O4, ammonium oxalate]
disaggregation effect [2, 8]: 87.67%

pKa ([1]; pKa, Table 3): 5.5
Molecule: Nc1cc(N)cc(N)c1 [1,3,5-triaminobenzene]
Platelet disaggregation rate [2, 7]: 72.44%

pKa [1]: 13.2
Molecule: methyl guanidine
Platelet disaggregation rate [2, 11]: 86.36%

pKa ([1]; pKa, Table 4): 10.8
Molecule: N=C(N)NCC(=O)O [{[amino(imino)methyl]amino}-acetic acid]
Platelet disaggregation rate [2, 11]: 94.02%

Molecule: CCS(=O)(=O)O [ethanesulfonic acid, reference compound]
Platelet disaggregation rate [2, 4]: 16.54%

Molecule: CNCCO [2-(methylamino)ethanol]
Platelet disaggregation rate [2, 4]: 82.49%%

pKa ([1]; pKa, Table 3): 13.2
Molecule: N=C(N)NC(=N)N [biguanide]
Platelet disaggregation rate [2, 7]: 97.54%

pKa ([1]; pKa, Table 4): 10.3
Molecule: NCCCCO [4-amino-1-butanol]
Platelet disaggregation rate [2, 6]: 74.45%

Molecule: C=O [formaldehyde, reference compound]
Platelet disaggregation rate [2, 4]: 13.85%

pKa ([1]; pKa, Example 4): 10.1 | pKa ([1]; pKa, Table 3): 3.32
Molecule: Nc1ccc(S(=O)(=O)O)cc1 [sulfanilic acid]
Platelet disaggregation rate [2, 4]: 55.15% | Platelet disaggregation rate [2, 7]: 55.15%

Molecule: N.O=P(O)(O)O [NH4H2PO4, ammonium dihydrogen phosphate]
disaggregation effect [2, 8]: 86.24%

Molecule: CC=O [acetaldehyde, reference compound]
Platelet disaggregation rate [2, 4]: 16.54%

Molecule: CCCN [n-propylamine]
Platelet disaggregation rate [2, 3]: 85.53%

pKa [1]: 13.17
Molecule: N=C(N)N [guanidine]
Platelet disaggregation rate [2, 4]: 84.35% | Platelet disaggregation rate [2, 7]: 84.35%

pKa ([1]; pKa, Table 4): 5.75
Molecule: NCS(=O)(=O)O [aminomethanesulfonic acid]
Platelet disaggregation rate [2, 5]: 52.44%

pKa ([1]; pKa, Table 4): 10.4
Molecule: NCCCC(=O)O [4-aminobutyric acid]

Molecule: NCC(=O)NCC(=O)O [gly-gly] (H-Gly-Gly-OH)
pKa [1]: 9.6 | disaggregation rate [2, 9]: 57.29%

Molecule: CCO [ethanol, reference compound]
Platelet disaggregation rate [2, 4]: 14.46%

Molecule: N.N#CS [NH4SCN, ammonium thiocyanate]
disaggregation effect [2, 8]: 85.78%

Molecule: CC(=O)CC(C)=O [acetylacetone, reference compound]
Platelet disaggregation rate [2, 4]: 8.45%

pKa ([1]; pKa, Table 3): 7.02
Molecule: CNC(CC(N)=O)C(N)=O (stereo not drawn) [2-(methylamino) succinamide]
Platelet disaggregation rate [2, 7]: 74.43%

Molecule: Br.N [NH4Br, ammonium bromide]
disaggregation effect [2, 8]: 93.48%

pKa ([1]; pKa, Table 4): 8.18
Molecule: CC(N)C(N)=O (stereo not drawn) [2-aminopropanamide]
Platelet disaggregation rate [2, 12]: 62.65%

Molecule: N.O [NH4OH, ammonia water]
disaggregation effect [2, 8]: 83.05%

Molecule: CCCC(=O)O [butyric acid, reference compound]
Platelet disaggregation rate [2, 4]: 11.45%

Molecule: CC(=O)O [acetate, reference compound]
Platelet disaggregation rate [2, 4]: 11.75%

Molecule: butanol [reference compound]
Platelet disaggregation rate [2, 4]: 13.14%

Molecule: CC(=O)NC(C)=O [diacetamide]
Platelet disaggregation rate [2, 4]: 75.43%

pKa ([1]; pKa, Table 3): 11
Molecule: NCCCCC(N)C(=O)NC(CCCCN)C(=O)O (stereo not drawn) [lys-lys]
Platelet disaggregation rate [2, 7]: 85.75%

Molecule: N.N.O=P(O)(O)O [(NH4)2HPO4, ammonium hydrogen phosphate]
disaggregation effect [2, 8]: 99.25%

Molecule: NC(=O)CCC(N)C(=O)O (stereo not drawn) [glutamine]
Platelet disaggregation rate [2, 12]: 59.25%

Molecule: aminoguanidine
pKa ([1]; Table 3): 11.04 | Platelet disaggregation rate [2, 7]: 92.35%

pKa [1]: 9.6 | pKa ([1]; Table 5): 9.6
Molecule: N[C@@H](CCC(=O)O)C(=O)O [glutamic acid]
disaggregation rate [2, 9]: 63.24%

Molecule: Oc1ccccc1 [phenol, reference compound]
Platelet disaggregation rate [2, 4]: 8.44%

Molecule: I.N [NH4I, ammonium iodide]
disaggregation effect [2, 8]: 92.75%

pKa ([1]; pKa, Table 3): 9.59 | pKa ([1]; pKa, Table 5): 9.6
Molecule: NCC(CN)CN [2-(aminomethyl)-propane-1,3-diamine]
Platelet disaggregation rate [2, 7]: 96.43% | disaggregation rate [2, 9]: 97.46%

Molecule: NCCCCC(N)C(=O)O (stereo not drawn) [lysine]
pKa ([1]; pKa, Example 4): 10.7 | pKa ([1]; pKa, Table 3): 10.8 | Platelet disaggregation rate [2, 7]: 70.49%

pKa ([1]; Table 4): 7.93
Molecule: 2-aminoacetamide
Platelet disaggregation rate [2, 12]: 64.57%

pKa ([1]; pKa): 4.67
Molecule: Nc1cccc(N)c1 [m-phenylenediamine]
Platelet disaggregation rate [2, 7]: 66.83%
